PubChem BioAssay (NCI)
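Protocol summary: plate cells (96-well), add compound at 5 concentrations, incubate 48 h, interpolate endpoints linearly. TGI marks complete inhibition of growth.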

Key:
Assay in all cases: NCI tumour cell line growth inhibition, 48 h
MALME-3M melanoma = tested on: MALME-3M melanoma
PC-3 prostate = tested on: PC-3 prostate
HCT-116 colon = tested on: HCT-116 colon
NCI-H522 lung = tested on: NCI-H522 lung
A498 renal = tested on: A498 renal
COLO 205 colon = tested on: COLO 205 colon
MCF7 breast = tested on: MCF7 breast
DU-145 prostate = tested on: DU-145 prostate
OVCAR-5 ovarian = tested on: OVCAR-5 ovarian
NCI/ADR-RES ovarian = tested on: NCI/ADR-RES ovarian
786-0 renal = tested on: 786-0 renal
A549 NSCLC = tested on: A549 NSCLC
SR leukemia = tested on: SR leukemia
IGROV1 ovarian = tested on: IGROV1 ovarian
SK-MEL-2 melanoma = tested on: SK-MEL-2 melanoma
SNB-75 CNS = tested on: SNB-75 CNS
ACHN renal = tested on: ACHN renal
M14 melanoma = tested on: M14 melanoma
UACC-257 melanoma = tested on: UACC-257 melanoma
HL-60(TB) leukemia = tested on: HL-60(TB) leukemia
RPMI-8226 leukemia = tested on: RPMI-8226 leukemia
BT-549 breast = tested on: BT-549 breast
MDA-MB-435 = tested on: MDA-MB-435
SK-MEL-28 melanoma = tested on: SK-MEL-28 melanoma
OVCAR-4 ovarian = tested on: OVCAR-4 ovarian
SF-539 CNS = tested on: SF-539 CNS
SF-268 CNS = tested on: SF-268 CNS
OVCAR-8 ovarian = tested on: OVCAR-8 ovarian
MDA-MB-231 breast = tested on: MDA-MB-231 breast
SW-620 colon = tested on: SW-620 colon
NCI-H226 lung = tested on: NCI-H226 lung
HCC-2998 colon = tested on: HCC-2998 colon
UACC-62 melanoma = tested on: UACC-62 melanoma
CCRF-CEM leukemia = tested on: CCRF-CEM leukemia
LOX IMVI melanoma = tested on: LOX IMVI melanoma
HT29 colon = tested on: HT29 colon
U251 CNS = tested on: U251 CNS
EKVX NSCLC = tested on: EKVX NSCLC
TK-10 renal = tested on: TK-10 renal
SNB-19 CNS = tested on: SNB-19 CNS
NCI-H460 lung = tested on: NCI-H460 lung
MOLT-4 leukemia = tested on: MOLT-4 leukemia
MDA-N = tested on: MDA-N
RXF 393 renal = tested on: RXF 393 renal
HOP-62 NSCLC = tested on: HOP-62 NSCLC
SK-MEL-5 melanoma = tested on: SK-MEL-5 melanoma
SN12C renal = tested on: SN12C renal
K-562 leukemia = tested on: K-562 leukemia
NCI-H23 lung = tested on: NCI-H23 lung
HCT-15 colon = tested on: HCT-15 colon
UO-31 renal = tested on: UO-31 renal
OVCAR-3 ovarian = tested on: OVCAR-3 ovarian
SK-OV-3 ovarian = tested on: SK-OV-3 ovarian
CAKI-1 renal = tested on: CAKI-1 renal
SF-295 CNS = tested on: SF-295 CNS

In the case of COc1ccc2c(c1)-c1nn(CCN(C)C)c3ccc(C(=O)NCCCN(C)CCCNC(=O)c4ccc5c6c(nn5CCN(C)C)-c5cc(OC)ccc5Nc46)c(c13)N2, the TGI (MALME-3M melanoma) is reported as 762 nM, the TGI (PC-3 prostate) is reported as 1090 nM and the TGI (HCT-116 colon) is reported as 1740 nM. The TGI (NCI-H522 lung) was 273 nM, the TGI (A498 renal) was 633 nM and the TGI (COLO 205 colon) was 224 nM. It also gave a TGI (MCF7 breast) of 1970 nM, a TGI (DU-145 prostate) of 952 nM and a TGI (OVCAR-5 ovarian) of 1660 nM. It also gave a TGI (NCI/ADR-RES ovarian) of over 62900 nM, a TGI (786-0 renal) of 1900 nM and a TGI (A549 NSCLC) of 1170 nM. The TGI (SR leukemia) was 3390 nM, the TGI (IGROV1 ovarian) was 1470 nM and the TGI (SK-MEL-2 melanoma) was 250 nM. For the same compound, the TGI (SNB-75 CNS) was 393 nM, the TGI (ACHN renal) was 7280 nM and the TGI (M14 melanoma) was 1330 nM. For the same compound, the TGI (UACC-257 melanoma) was 614 nM, the TGI (HL-60(TB) leukemia) was 2630 nM and the TGI (RPMI-8226 leukemia) was 76.8 nM. For the same compound, the TGI (BT-549 breast) was 948 nM, the TGI (MDA-MB-435) was 262 nM and the TGI (SK-MEL-28 melanoma) was 480 nM. The TGI (OVCAR-4 ovarian) was 827 nM, the TGI (SF-539 CNS) was 1560 nM and the TGI (SF-268 CNS) was 2460 nM. It also gave a TGI (OVCAR-8 ovarian) of 977 nM, a TGI (MDA-MB-231 breast) of 689 nM and a TGI (SW-620 colon) of 1540 nM. For the same compound, the TGI (NCI-H226 lung) was 541 nM, the TGI (HCC-2998 colon) was 306 nM and the TGI (UACC-62 melanoma) was 230 nM. It also gave a TGI (CCRF-CEM leukemia) of 141 nM, a TGI (LOX IMVI melanoma) of 898 nM and a TGI (HT29 colon) of 1740 nM. The TGI (U251 CNS) was 825 nM, the TGI (EKVX NSCLC) was 1680 nM and the TGI (TK-10 renal) was 4950 nM. The TGI (SNB-19 CNS) was 1040 nM, the TGI (NCI-H460 lung) was 1110 nM and the TGI (MOLT-4 leukemia) was 65.3 nM. For the same compound, the TGI (MDA-N) was 564 nM, the TGI (RXF 393 renal) was 499 nM and the TGI (HOP-62 NSCLC) was 1320 nM. It also gave a TGI (SK-MEL-5 melanoma) of 313 nM, a TGI (SN12C renal) of 983 nM and a TGI (K-562 leukemia) of 1140 nM. For the same compound, the TGI (NCI-H23 lung) was 384 nM, the TGI (HCT-15 colon) was 10900 nM and the TGI (UO-31 renal) was 4410 nM. For the same compound, the TGI (OVCAR-3 ovarian) was 3230 nM, the TGI (SK-OV-3 ovarian) was 3180 nM and the TGI (CAKI-1 renal) was 8120 nM. The TGI (SF-295 CNS) was 3380 nM.
